Reference: the Kinase Knowledgebase extract (Sharma et al. 2016)

target: MAPK14 (UniProt Q16539); experiment: Inhibition of MAPK14 Kinase Activity
Sequence (Q16539 whole entry, looked up): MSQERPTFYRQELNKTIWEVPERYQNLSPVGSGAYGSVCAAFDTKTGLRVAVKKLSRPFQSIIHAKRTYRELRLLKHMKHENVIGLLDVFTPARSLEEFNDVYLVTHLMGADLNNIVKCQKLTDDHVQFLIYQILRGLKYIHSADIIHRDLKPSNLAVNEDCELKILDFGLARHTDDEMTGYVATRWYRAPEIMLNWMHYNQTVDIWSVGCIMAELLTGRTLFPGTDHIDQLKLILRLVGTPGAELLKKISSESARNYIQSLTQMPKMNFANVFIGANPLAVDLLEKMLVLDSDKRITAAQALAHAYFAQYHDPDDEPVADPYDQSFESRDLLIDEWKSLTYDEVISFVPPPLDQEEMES

| SMILES | IC50 [µM] |
| --- | --- |
| COc1ccc(C(F)(F)F)cc1NC(=O)Nc1ccc(Oc2cc(C)nc(NCCN(C)C)n2)c2ccccc12 | < 1 |
| CNc1nc(C)cc(Oc2ccc(NC(=O)Nc3cc(C(F)(F)F)ccc3OC)c3ccccc23)n1 | < 1 |
| COc1ccc(C(F)(F)F)cc1NC(=O)Nc1ccc(Oc2cc(C)nc(NC(C)C)n2)c2ccccc12 | < 1 |
| COc1ccc(CC(F)(F)F)cc1NC(=O)Nc1ccc(Oc2cc(C)nc(N)n2)c2ccccc12 | < 1 |
| COc1ccc(C(F)(F)F)cc1NC(=O)Nc1ccc(Oc2cc(C)nc(CN3CCOCC3)n2)c2ccccc12 | < 1 |
| COc1ccc(C(F)(F)F)cc1NC(=O)Nc1ccc(Oc2cc(C)nc(NCC3CC3)n2)c2ccccc12 | < 1 |
| COc1ccc(C(F)(F)F)cc1NC(=O)Nc1ccc(Oc2cc(C)nc(NCCN3CCCC3)n2)c2ccccc12 | < 1 |
| COc1ccc(C(C(F)(F)F)C(F)(F)F)cc1NC(=O)Nc1ccc(Oc2cc(C)nc(N)n2)c2ccccc12 | < 1 |
| COc1ccc(C(F)(F)F)cc1NC(=O)Nc1ccc(Oc2cc(C)nc(N)n2)c2ccccc12 | < 1 |
| COc1ccc(OC(F)(F)F)cc1NC(=O)Nc1ccc(Oc2cc(C)nc(CN3CCOCC3)n2)c2ccccc12 | < 1 |
| COc1ccc(C(F)(F)C(F)(F)F)cc1NC(=O)Nc1ccc(Oc2cc(C)nc(N)n2)c2ccccc12 | < 1 |
| COc1c(NC(=O)Nc2ccc(Oc3cc(C)nc(C)n3)c3ccccc23)cc(C(F)(F)F)cc1NS(C)(=O)=O | < 1 |
| COc1nc(C)cc(Oc2ccc(NC(=O)Nc3cc(C(F)(F)F)ccc3OC)c3ccccc23)n1 | < 1 |
| COc1ccc(OC(F)(F)F)cc1NC(=O)Nc1ccc(Oc2cc(C)nc(OCCn3ccnc3)n2)c2ccccc12 | < 1 |
| COc1ccc(OC(F)(F)F)cc1NC(=O)Nc1ccc(Oc2cc(C)nc(CN3CCN(C)CC3)n2)c2ccccc12 | < 1 |
| CNc1nc(C)cc(Oc2ccc(NC(=O)Nc3cc(OC(F)(F)F)ccc3OC)c3ccccc23)n1 | < 1 |
| COc1ccc(C(F)(F)F)cc1NC(=O)Nc1ccc(Oc2cc(C)nc(CN(C)C)n2)c2ccccc12 | < 1 |
| COc1ccc(C(F)(F)F)cc1NC(=O)Nc1ccc(Oc2cc(C)nc(NCC3CCCO3)n2)c2ccccc12 (centres undefined) | < 1 |
| CCNc1nc(C)cc(Oc2ccc(NC(=O)Nc3cc(OC(F)(F)F)ccc3OC)c3ccccc23)n1 | < 1 |
| COc1ccc(C(F)(F)F)cc1NC(=O)Nc1ccc(Oc2cc(C)nc(NCCN3CCOCC3)n2)c2ccccc12 | < 1 |

| SMILES | IC50 [µM] |
| --- | --- |
| COc1ccc(OC(F)(F)F)cc1NC(=O)Nc1ccc(Oc2cc(C)nc(NCCN(C)C)n2)c2ccccc12 | < 1 |
| COc1ccc(C(C(F)(F)F)C(F)(F)F)cc1NC(=O)Nc1ccc(Oc2cc(C)nc(NCCN(C)C)n2)c2ccccc12 | < 1 |
| COc1ccc(CC(F)(F)F)cc1NC(=O)Nc1ccc(Oc2cc(C)nc(NCCCN(C)C)n2)c2ccccc12 | < 1 |
| COCC(C)Nc1nc(C)cc(Oc2ccc(NC(=O)Nc3cc(C(F)(F)F)ccc3OC)c3ccccc23)n1 (centres undefined) | < 1 |
| COc1ccc(C(F)(F)F)cc1NC(=O)Nc1ccc(Oc2cc(C)nc(CN3CCN(C)CC3)n2)c2ccccc12 | < 1 |
| CCNc1nc(C)cc(Oc2ccc(NC(=O)Nc3cc(C(F)(F)F)ccc3OC)c3ccccc23)n1 | < 1 |
| COCCNc1nc(C)cc(Oc2ccc(NC(=O)Nc3cc(OC(F)(F)F)ccc3OC)c3ccccc23)n1 | < 1 |
| COCCNc1nc(C)cc(Oc2ccc(NC(=O)Nc3cc(C(F)(F)F)ccc3OC)c3ccccc23)n1 | < 1 |
| COc1ccc(C(F)(F)F)cc1NC(=O)Nc1ccc(Oc2cc(C)nc(NCC(O)CO)n2)c2ccccc12 (centres undefined) | < 1 |
| COc1ccc(C(C(F)(F)F)C(F)(F)F)cc1NC(=O)Nc1ccc(Oc2cc(C)nc(CN3CCOCC3)n2)c2ccccc12 | < 1 |
| COc1ccc(OC(F)(F)F)cc1NC(=O)Nc1ccc(Oc2cc(C)nc(NCCN3CCCC3)n2)c2ccccc12 | < 1 |
| COc1ccc(C(F)(F)F)cc1NC(=O)Nc1ccc(Oc2cc(C)nc(NC3CC3)n2)c2ccccc12 | < 1 |
| COc1ccc(C(C)C(F)(F)F)cc1NC(=O)Nc1ccc(Oc2cc(C)nc(N)n2)c2ccccc12 (centres undefined) | < 1 |
| COc1ccc(OC(F)(F)F)cc1NC(=O)Nc1ccc(Oc2cc(C)nc(CN(C)C)n2)c2ccccc12 | < 1 |
| COc1ccc(CC(F)(F)F)cc1NC(=O)Nc1ccc(Oc2cc(C)nc(NCCCN3CCOCC3)n2)c2ccccc12 | < 1 |
| COc1ccc(OC(F)(F)F)cc1NC(=O)Nc1ccc(Oc2cc(C)nc(CN3CCCC3)n2)c2ccccc12 | < 1 |
| COc1ccc(CC(F)(F)F)cc1NC(=O)Nc1ccc(Oc2cc(C)nc(OCC3CCN(C)CC3)n2)c2ccccc12 | < 1 |
| COc1ccc(OC(F)(F)F)cc1NC(=O)Nc1ccc(Oc2cc(C)nc(NCCCN3CCOCC3)n2)c2ccccc12 | < 1 |
| COc1ccc(C(F)(F)F)cc1NC(=O)Nc1ccc(Oc2cc(C)nc(C)n2)c2ccccc12 | < 1 |
